target: T1, NLRP3 (Homo sapiens, UniProt Q96P20); assay: Measurement of IL-1β production in PMA-differentiated THP-1 cells (NLRP3 hIL1β); assay type: cell-based
T1 construct: Measurement of IL-1β Production in PMA-Differentiated THP-1 Cells; host or cells: THP-1 cells, PMA-differentiated
Experimental: Measurement of IL-1β Production in PMA-Differentiated THP-1 Cells
THP-1 cells were purchased from the American Type Culture Collection and sub-cultured according to instructions from the supplier. Prior to experiments, cells were cultured in RPMI 1640 containing 10% heat inactivated FBS, penicillin (100 units/ml) and streptomycin (100 μg/ml), and maintained in log phase prior to experimental setup. Prior to the experiment THP-1 were treated with PMA (Phorbol 12-myristate 13-acetate) (10 μg/ml) for 24 hours. The day of the experiment the media was removed and attaching cells were treated with trypsin for 2 minutes, cells were then collected, washed with PBS (phosphate buffer saline), spin down, resuspended in 2% heat inactivated FBS with RPMI at a concentration of 1×10^6 cells/ml, and 100 μl was plated in a 96 well plate. Compounds were dissolved in dimethyl sulfoxide (DMSO) and added to the culture medium to achieve desired concentration (e.g. 100, 30, 10, 3, 1, 0.3 or 0.1 μM). Cells were incubated with compounds for 4 hours. Cell free supernatant was collected and the production of IL-1β was evaluated by ELISA. A vehicle only control was run concurrently with each experiment. Final DMSO concentration was 1%.
Measurement of IL-1β Production in PMA-Differentiated THP-1 Cells (Alternative Procedure)
THP-1 cells were purchased from the American Type Culture Collection and sub-cultured according to instructions from the supplier. Prior to experiments, cells were cultured in RPMI 1640 containing 10% heat inactivated FBS, penicillin (100 units/ml), streptomycin (100 μg/ml), HEPES (10 mM) and sodium pyruvate (1 mM) and maintained in log phase prior to experimental setup. Prior to the experiment, THP-1 cells were treated with PMA (Phorbol 12-myristate 13-acetate) (20 μg/ml) overnight. The day of the experiment, the media was removed and attached cells were treated with trypsin for 2 minutes, cells were then collected, washed with PBS (phosphate buffer saline), pelleted by centrifugation and resuspended in 2% heat inactivated FBS with RPMI at a concentration of 50,000 cells/well in a 384 well plate. Cell free supernatant was collected and the production of IL-1β was evaluated by ELISA. Compounds were dissolved in dimethyl sulfoxide (DMSO) and added to the culture medium to achieve desired concentration (e.g. 100, 30, 10, 3, 1, 0.3 or 0.1 μM). Cells were incubated with compounds for 2 hours. A vehicle only control was run concurrently with each experiment. Final DMSO concentration was 1%.
Measurement of IL-1β Production—hTRF Protocol (Second Alternative Procedure)
Serial dilutions of compounds in DMSO were added to low volume 384 well plates at 100 nl/well using an ECHO 550 acoustic dispenser (Labcyte) to achieve final starting concentration of 10 μM in assay.
THP-1 cells in RPMI (Gibco, 11875) media with 10% FBS at a density of 1×10^6 cell/ml in a T175 flask were treated with a final concentration of phorbol 12-myristate 13-acetate (PMA) (Sigma, P1585) of 50 ng/ml overnight at 37° C. at 5% CO2 for differentiation. Cells were harvested the next day after rinsing well wth dPBS using 0.5% trypsin. A cell solution was prepared of 1×10^6 cells/ml for 50,000 cells in 50 μl/well in RPMI media with 2% FBS. Cells were plated using a multichannel pipette onto the compound dilutions in Greiner, 384 well, black clear bottom tissue culture treated plates (781090). The plates were incubated in 37° C. incubator at 5% CO2 for 2 hours.
After the 2 hour incubation, the cell plates were spun in the centrifuge for 5 minutes at 1200 rpm. Using the Felix (CyBio), 8 μl of the supernatant was transferred to 384 well, low volume, white proxy plates. (Perkin Elmer, 6008230). A human IL1beta hTRF kit was used to analyze the supernatant (CISBIO, 62HIL1BPEG). The kit instructions were followed for preparing the IL1Beta standard curve and then the antibodies from the kit were diluted 1:40 rather than 1:20 as kit instructed. […]

T1 sequence (Q96P20 whole entry): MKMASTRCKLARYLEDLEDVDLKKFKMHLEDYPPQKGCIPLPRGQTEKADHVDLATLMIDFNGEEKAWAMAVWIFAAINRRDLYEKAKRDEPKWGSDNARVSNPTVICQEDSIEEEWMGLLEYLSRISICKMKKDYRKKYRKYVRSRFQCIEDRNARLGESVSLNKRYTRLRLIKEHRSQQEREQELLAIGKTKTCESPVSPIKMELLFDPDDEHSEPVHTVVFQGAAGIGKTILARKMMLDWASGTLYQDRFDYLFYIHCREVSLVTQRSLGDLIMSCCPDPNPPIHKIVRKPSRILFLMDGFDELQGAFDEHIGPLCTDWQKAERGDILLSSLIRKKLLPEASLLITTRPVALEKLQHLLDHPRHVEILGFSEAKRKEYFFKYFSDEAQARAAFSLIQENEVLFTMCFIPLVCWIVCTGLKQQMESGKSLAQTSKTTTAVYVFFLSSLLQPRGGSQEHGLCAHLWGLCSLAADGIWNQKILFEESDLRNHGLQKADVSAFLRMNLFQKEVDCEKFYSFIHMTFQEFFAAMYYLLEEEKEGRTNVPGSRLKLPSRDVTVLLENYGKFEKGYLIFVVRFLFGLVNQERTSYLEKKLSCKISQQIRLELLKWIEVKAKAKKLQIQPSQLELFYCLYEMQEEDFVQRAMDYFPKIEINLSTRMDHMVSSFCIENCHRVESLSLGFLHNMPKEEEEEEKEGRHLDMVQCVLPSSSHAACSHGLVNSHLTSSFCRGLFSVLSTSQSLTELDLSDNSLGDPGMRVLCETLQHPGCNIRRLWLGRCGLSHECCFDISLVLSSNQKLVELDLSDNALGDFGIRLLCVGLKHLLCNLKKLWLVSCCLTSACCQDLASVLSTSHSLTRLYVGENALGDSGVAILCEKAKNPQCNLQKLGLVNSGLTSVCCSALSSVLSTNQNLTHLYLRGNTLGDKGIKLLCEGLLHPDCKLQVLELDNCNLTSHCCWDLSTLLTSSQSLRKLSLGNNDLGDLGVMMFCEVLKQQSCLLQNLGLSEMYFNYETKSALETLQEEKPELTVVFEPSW

EC50 | Structure (SMILES)
1000 nM | Nc1cc(NCCCO)c2ccc(-c3cc[nH]n3)nc2n1 [Example 1, 3-((2-amino-7-(1H-pyrazol-3-yl)-1,8-naphthyridin-4-yl)amino)propan-1-ol]
17000 nM | Nc1cc(N[C@H]2CC[C@H](O)C2)c2cnc(-c3ccn[nH]3)cc2n1 [Example 2, (1S,3S)-3-((2-amino-7-(1H-pyrazol-5-yl)-1,6-naphthyridin-4-yl)amino)cyclopentan-1-ol]
310 nM | Nc1cc(NCCO)c2ncc(-c3ccn[nH]3)cc2n1 [Example 3, 2-((2-amino-7-(1H-pyrazol-3-yl)-1,5-naphthyridin-4-yl)amino)ethan-1-ol]
3500 nM | Nc1cc(N[C@H]2CC[C@H](O)C2)c2ncc(-c3ccn[nH]3)cc2n1 [Example 4, (1S,3S)-3-((2-amino-7-(1H-pyrazol-5-yl)-1,5-naphthyridin-4-yl)amino)cyclopentan-1-ol]
860 nM | Nc1cc(-c2cc[nH]n2)c2ncc(-c3ccn[nH]3)cc2n1 [Example 5, 4-(1H-pyrazol-3-yl)-7-(1H-pyrazol-5-yl)-1,5-naphthyridin-2-amine]
3600 nM | Nc1nc(N[C@@H]2CCOC2)c2ncc(-c3cc[nH]n3)cc2n1 [Example 6, (R)-7-(1H-pyrazol-3-yl)-N4-(tetrahydrofuran-3-yl)pyrido[3,2-d]pyrimidine-2,4-diamine]
5700 nM | Nc1nc(N[C@H]2CC[C@H](O)C2)c2ccc(-c3ccn[nH]3)nc2n1 [Example 7, (1S,3 S)-3-((2-amino-7-(1H-pyrazol-5-yl)pyrido[2,3-d]pyrimidin-4-yl)amino)cyclopentan-1-ol]
1600 nM | Nc1cc(N[C@H]2CC[C@H](O)C2)c2ccc(-c3cc[nH]n3)nc2n1 [Example 8]
2000 nM | Nc1cc(NCc2cccnn2)c2ccc(-c3cc[nH]n3)nc2n1 [Example 9]
930 nM | Nc1cc(N[C@H]2CCOC2)c2ccc(-c3cc[nH]n3)nc2n1 [Example 10]
1700 nM | Nc1cc(NCCCO)c2cnc(-c3cc[nH]n3)cc2n1 [Example 11]
1700 nM | Nc1cc(N[C@H]2CCOC2)c2cnc(-c3cc[nH]n3)cc2n1 [Example 12]
2600 nM | Nc1cc(N[C@@H]2CCOC2)c2ncc(-c3ccn[nH]3)cc2n1 [Example 14]
280 nM | Nc1cc(NCc2cc[nH]n2)c2ncc(-c3ccn[nH]3)cc2n1 [Example 15]
350 nM | Nc1cc(NCCCO)c2ncc(-c3ccn[nH]3)cc2n1 [Example 16]
830 nM | Nc1nc(NCCCO)c2ncc(-c3cc[nH]n3)cc2n1 [Example 17]
2000 nM | Nc1nc(NCc2cncnc2)c2ncc(-c3cc[nH]n3)cc2n1 [Example 18]
690 nM | Nc1nc(NCCc2ccccn2)c2ncc(-c3cc[nH]n3)cc2n1 [Example 19]
1900 nM | Nc1nc(NCCO)c2ncc(-c3cc[nH]n3)cc2n1 [Example 20]
700 nM | Nc1nc(N2CCCOCC2)c2ncc(-c3cc[nH]n3)cc2n1 [Example 21]
310 nM | C[C@H](O)CNc1cc(N)nc2cc(-c3ccn[nH]3)cnc12 [Example 24]
80 nM | C[C@@H](O)CNc1cc(N)nc2cc(-c3ccn[nH]3)cnc12 [Example 25]
590 nM | Nc1cc(N[C@@H]2CC[C@@H](O)C2)c2ncc(-c3ccn[nH]3)cc2n1 [Example 26]
140 nM | Nc1cc(N[C@H]2C[C@H](O)C2)c2ncc(-c3ccn[nH]3)cc2n1 [Example 28]
280 nM | Nc1cc(NCc2cccnn2)c2ncc(-c3ccn[nH]3)cc2n1 [Example 29]

From patent US12150937B2, “NLRP3 modulators” (INNATE TUMOR IMMUNITY, INC., priority 2019, dated 2024)
